Measured values reported in patent US12226433B2, “Treatment of irritable bowel syndrome with molybdenum” (The Johns Hopkins University, priority 2018, dated 2025).

What was measured:
IBS mouse model = assay: Visceral motor reflex (VMR) response to colorectal distention (CRD), pain sensitivity in IBS mouse model; format: in vivo; conditions: 0.2 ml sodium molybdate (10 mg/ml) cecal infusion for 7 days; for pain sensitivity (hyperalgesia) assessed by VMR response to CRD: IBS mice, CRD 15, 30, 50 and 70 mmHg, vs IBS-vehicle, P<0.05
Method: (§1) IBS mice were generated by colorectal infusion of 0.5% acetic acid (20 μl) at postnatal day 10. The mice were then allowed to grow up until adult. The adult IBS and control mice were undergone a surgery to insert a catheter into the cecum. The catheter made from PE10 tubing with 8 cm long. It was insert into cecum about 0.5 cm and then tunneled to the back of the mouse after sutured on the cecum wall ensuring no cecum content leaking. Then, a pair of electrodes were inserted into the external oblique (abdominal) muscle for pain sensitivity test. The mice received 0.2 ml sodium molybdate (10 mg/ml) through cecal infusion starting on the day after surgery for 7 days. One day after the last infusion, a visceral motor reflex (VMR) response to colorectal distention (CRD) was conducted to assess the pain sensitivity. A balloon was inserted into colorectum through the anus for CRD. The VMR is measured using an electromyographic (EMG) recording that response to CRD with 15, 30, 50 and 70 mmHg. To assess the microbiota, stool were collected before and after the molybdate treatment. Microbiome were examined by 16S rRNA sequencing.

Desulfovibrio = assay: Stool microbiome examined by 16S rRNA sequencing before and after molybdate treatment; format: in vivo, mouse; conditions: molybdate treated control and IBS groups; stool before and after 7 days of cecal infusion; not reduced in saline treated groups
Method: as §1

`[Na+].[Na+].[O]=[Mo](=[O])([O-])[O-]` [sodium molybdate] was tested, and the “pain sensitivity (hyperalgesia) assessed by VMR response to CRD” value (IBS mouse model) was “reduced hyperalgesia”, the “pain sensitivity (hyperalgesia) assessed by VMR response to CRD” value (IBS mouse model; listed as molybdate) was “significantly reduced” and the “pain sensitivity assessed by VMR response to CRD” value (IBS mouse model; control mice, molybdate vs saline treated) was “no significant different”. The “sulfate-reducing bacteria Desulfovibrio in stool (16S rRNA sequencing)” value (Desulfovibrio) was “reduced”.
